{
  "source": "paper PMC5394417",
  "about": "“Investigating the molecular mechanism of positive and negative allosteric modulators in the calcium-sensing receptor dimer” (Scientific Reports, 2017)",
  "target": "T1, HA-E297A CaSR mutant (Rattus norvegicus, UniProt P48442, E297A)",
  "T1 construct": "mGluR5 signal peptide (N); expressed in transfected cells; host or cells: HEK293T",
  "T1 sequence (P48442 20-1079 E297A)": "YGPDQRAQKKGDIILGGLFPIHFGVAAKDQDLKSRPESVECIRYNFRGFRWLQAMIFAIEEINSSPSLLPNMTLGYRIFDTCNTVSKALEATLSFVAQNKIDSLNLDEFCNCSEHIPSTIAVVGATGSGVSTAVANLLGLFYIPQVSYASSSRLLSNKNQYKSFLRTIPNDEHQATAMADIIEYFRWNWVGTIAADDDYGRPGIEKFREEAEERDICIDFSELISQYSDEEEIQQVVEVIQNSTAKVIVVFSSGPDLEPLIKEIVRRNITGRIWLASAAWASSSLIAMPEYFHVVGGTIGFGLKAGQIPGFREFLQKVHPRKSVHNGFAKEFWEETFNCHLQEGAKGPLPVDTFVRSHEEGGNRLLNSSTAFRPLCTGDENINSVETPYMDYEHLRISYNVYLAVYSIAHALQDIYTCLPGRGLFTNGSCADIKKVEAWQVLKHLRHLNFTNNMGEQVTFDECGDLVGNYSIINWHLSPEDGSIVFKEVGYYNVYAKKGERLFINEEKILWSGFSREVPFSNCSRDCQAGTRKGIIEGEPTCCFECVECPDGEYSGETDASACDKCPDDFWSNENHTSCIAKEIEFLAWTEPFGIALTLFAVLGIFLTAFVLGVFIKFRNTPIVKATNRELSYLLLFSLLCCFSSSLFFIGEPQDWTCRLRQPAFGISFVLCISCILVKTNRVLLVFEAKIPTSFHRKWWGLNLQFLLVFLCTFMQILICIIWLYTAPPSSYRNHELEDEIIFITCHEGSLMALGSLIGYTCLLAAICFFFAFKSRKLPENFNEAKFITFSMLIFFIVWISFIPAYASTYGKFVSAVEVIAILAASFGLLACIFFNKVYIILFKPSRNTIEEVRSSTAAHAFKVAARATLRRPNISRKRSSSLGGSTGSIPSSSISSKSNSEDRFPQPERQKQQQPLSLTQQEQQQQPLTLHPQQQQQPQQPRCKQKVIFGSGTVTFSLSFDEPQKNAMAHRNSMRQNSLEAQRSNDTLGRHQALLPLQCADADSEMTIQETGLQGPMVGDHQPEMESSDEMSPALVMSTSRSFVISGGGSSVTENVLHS",
  "test": "IP-One assay, HEK293T transiently transfected",
  "type": "cell-based",
  "data": [
    {"molecule": "[Ca+2]", "note": "[Ca^2+]", "values": [
      {"measurement": "EC50", "setting": "Ca^2+ alone", "result": 7.36, "unit": "mM"},
      {"measurement": "Hill coefficient ± S.E.M.", "setting": "Ca^2+ alone", "result": "3.01 ± 0.07"},
      {"measurement": "Max ± S.E.M.", "setting": "normalized to maximum response of WT CaSR", "result": "130 ± 25", "unit": "%"}
    ]}
  ]
}
